Data as given in ChEMBL document CHEMBL2311451, “Discovery of a selective M₄ positive allosteric modulator based on the 3-amino-thieno[2,3-b]pyridine-2-carboxamide scaffold: development of ML253, a potent and brain penetrant compound that is active in a preclinical model of schizophrenia” (Bioorg Med Chem Lett, 2013).

How the values were obtained:
[1] = biological target: T1, Muscarinic acetylcholine receptor M4 (Homo sapiens) (UniProt P08173); assay: Positive allosteric modulation of human muscarinic M4 receptor expressed in CHO-K1 cells assessed as leftward shift in acetylcholine response treated for 144 secs prior to acetylcholine addition measured for 5 mins by Fluo-4-AM based calcium mobilization assay relative to control; type: functional, cell-based
T1 sequence (whole entry): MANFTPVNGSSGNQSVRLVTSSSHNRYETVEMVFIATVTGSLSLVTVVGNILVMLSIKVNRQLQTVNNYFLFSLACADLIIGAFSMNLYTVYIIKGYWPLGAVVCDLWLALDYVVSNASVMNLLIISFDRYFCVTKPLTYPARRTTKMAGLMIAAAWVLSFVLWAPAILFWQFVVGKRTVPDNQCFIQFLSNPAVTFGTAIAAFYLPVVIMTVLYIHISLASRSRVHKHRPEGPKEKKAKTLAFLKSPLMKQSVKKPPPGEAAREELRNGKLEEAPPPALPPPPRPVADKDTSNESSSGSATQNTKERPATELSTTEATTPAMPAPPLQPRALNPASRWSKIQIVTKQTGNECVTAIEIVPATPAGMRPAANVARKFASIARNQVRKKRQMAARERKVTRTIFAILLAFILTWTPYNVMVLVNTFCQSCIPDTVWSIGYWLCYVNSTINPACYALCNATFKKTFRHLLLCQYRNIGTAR

[2] = biological target: T2, Muscarinic acetylcholine receptor M4 (Homo sapiens, UniProt P08173); assay: Positive allosteric modulation of human muscarinic M4 receptor expressed in CHO-K1 cells assessed as leftward shift in acetylcholine response treated for 144 secs prior to acetylcholine addition measured for 5 mins by Fluo-4-AM based calcium mobilization assay; type: functional, cell-based
T2 sequence (P08173 whole entry): T1 sequence (whole entry)

[3] = biological target: T3, Muscarinic acetylcholine receptor M4 (Rattus norvegicus, UniProt P08485); assay: Positive allosteric modulation of rat muscarinic M4 receptor assessed as acetylcholine response
T3 sequence (P08485 whole entry): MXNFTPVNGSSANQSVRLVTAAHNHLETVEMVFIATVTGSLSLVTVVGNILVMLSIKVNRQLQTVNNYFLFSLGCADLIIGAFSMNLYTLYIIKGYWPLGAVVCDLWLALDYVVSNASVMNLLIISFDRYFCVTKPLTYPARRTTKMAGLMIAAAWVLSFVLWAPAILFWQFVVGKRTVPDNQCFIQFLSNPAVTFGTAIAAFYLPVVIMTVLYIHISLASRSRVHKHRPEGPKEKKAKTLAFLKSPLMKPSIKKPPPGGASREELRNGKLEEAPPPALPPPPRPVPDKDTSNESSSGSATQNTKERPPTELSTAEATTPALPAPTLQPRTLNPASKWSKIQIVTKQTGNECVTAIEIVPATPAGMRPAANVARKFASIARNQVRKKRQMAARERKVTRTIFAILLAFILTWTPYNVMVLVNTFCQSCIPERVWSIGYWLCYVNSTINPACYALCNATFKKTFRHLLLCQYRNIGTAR

[4] = biological target: Muscarinic acetylcholine receptor M5 (Rattus norvegicus, UniProt P08911); assay: Positive allosteric modulation of rat muscarinic M5 receptor assessed as acetylcholine response
[5] = biological target: Muscarinic acetylcholine receptor M5 (Homo sapiens, UniProt P08912); assay: Positive allosteric modulation of human muscarinic M5 receptor expressed in CHO-K1 cells assessed as leftward shift in acetylcholine response treated for 144 secs prior to acetylcholine addition measured for 5 mins by Fluo-4-AM based calcium mobilization assay; type: functional, cell-based
[6] = biological target: Muscarinic acetylcholine receptor M3 (Rattus norvegicus, UniProt P08483); assay: Positive allosteric modulation of rat muscarinic M3 receptor assessed as acetylcholine response
[7] = biological target: Muscarinic acetylcholine receptor M3 (Homo sapiens, UniProt P20309); assay: Positive allosteric modulation of human muscarinic M3 receptor expressed in CHO-K1 cells assessed as leftward shift in acetylcholine response treated for 144 secs prior to acetylcholine addition measured for 5 mins by Fluo-4-AM based calcium mobilization assay; type: functional, cell-based
[8] = biological target: Muscarinic acetylcholine receptor M2 (Rattus norvegicus) (UniProt P10980); assay: Positive allosteric modulation of rat muscarinic M2 receptor assessed as acetylcholine response relative to control
[9] = biological target: Muscarinic acetylcholine receptor M2 (Rattus norvegicus, UniProt P10980); assay: Positive allosteric modulation of rat muscarinic M2 receptor assessed as acetylcholine response
[10] = biological target: Muscarinic acetylcholine receptor M2 (Homo sapiens) (UniProt P08172); assay: Positive allosteric modulation of human muscarinic M2 receptor expressed in CHO-K1 cells assessed as leftward shift in acetylcholine response treated for 144 secs prior to acetylcholine addition measured for 5 mins by Fluo-4-AM based calcium mobilization assay relative to control; type: functional, cell-based
[11] = biological target: Muscarinic acetylcholine receptor M2 (Homo sapiens, UniProt P08172); assay: Positive allosteric modulation of human muscarinic M2 receptor expressed in CHO-K1 cells assessed as leftward shift in acetylcholine response treated for 144 secs prior to acetylcholine addition measured for 5 mins by Fluo-4-AM based calcium mobilization assay; type: functional, cell-based
[12] = biological target: Muscarinic acetylcholine receptor M1 (Rattus norvegicus) (UniProt P08482); assay: Positive allosteric modulation of rat muscarinic M1 receptor assessed as acetylcholine response relative to control
[13] = biological target: Muscarinic acetylcholine receptor M1 (Rattus norvegicus, UniProt P08482); assay: Positive allosteric modulation of rat muscarinic M1 receptor assessed as acetylcholine response
[14] = biological target: Muscarinic acetylcholine receptor M1 (Homo sapiens) (UniProt P11229); assay: Positive allosteric modulation of human muscarinic M1 receptor expressed in CHO-K1 cells assessed as leftward shift in acetylcholine response treated for 144 secs prior to acetylcholine addition measured for 5 mins by Fluo-4-AM based calcium mobilization assay relative to control; type: functional, cell-based
Plasma [15] = assay: Fraction unbound in human plasma; type: ADME, cell-free
[16] = biological target: Muscarinic acetylcholine receptor M1 (Homo sapiens, UniProt P11229); assay: Positive allosteric modulation of human muscarinic M1 receptor expressed in CHO-K1 cells assessed as leftward shift in acetylcholine response treated for 144 secs prior to acetylcholine addition measured for 5 mins by Fluo-4-AM based calcium mobilization assay; type: functional, cell-based
Plasma [17] = assay: Fraction unbound in rat plasma; type: ADME, cell-free
[18] = biological target: Muscarinic acetylcholine receptor M4 (Rattus norvegicus) (UniProt P08485); assay: Positive allosteric modulation of rat muscarinic M4 receptor assessed as acetylcholine response at 10 uM relative to acetylcholine
[19] = biological target: T1, Muscarinic acetylcholine receptor M4 (Homo sapiens); assay: Positive allosteric modulation of human muscarinic M4 receptor expressed in CHO-K1 cells assessed as leftward shift in acetylcholine response at 10 uM treated for 144 secs prior to acetylcholine addition measured for 5 mins by Fluo-4-AM based calcium mobilization assay relative to acetylcholine; type: functional, cell-based

Sequence of Muscarinic acetylcholine receptor M1 (Homo sapiens) (P11229 whole entry): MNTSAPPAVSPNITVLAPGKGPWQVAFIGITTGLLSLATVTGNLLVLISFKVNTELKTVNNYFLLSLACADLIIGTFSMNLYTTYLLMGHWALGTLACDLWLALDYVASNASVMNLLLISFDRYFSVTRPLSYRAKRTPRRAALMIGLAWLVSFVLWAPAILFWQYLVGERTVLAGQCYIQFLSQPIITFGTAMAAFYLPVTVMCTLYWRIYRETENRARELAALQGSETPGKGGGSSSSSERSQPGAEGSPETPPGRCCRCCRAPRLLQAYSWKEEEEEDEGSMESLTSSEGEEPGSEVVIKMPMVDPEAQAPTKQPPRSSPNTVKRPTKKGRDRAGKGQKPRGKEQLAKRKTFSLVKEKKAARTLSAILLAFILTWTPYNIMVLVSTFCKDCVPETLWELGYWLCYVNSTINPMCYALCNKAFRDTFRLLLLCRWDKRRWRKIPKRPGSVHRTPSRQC
Sequence of Muscarinic acetylcholine receptor M1 (Homo sapiens, UniProt P11229) (P11229 whole entry): as above
Sequence of Muscarinic acetylcholine receptor M2 (Homo sapiens) (P08172 whole entry): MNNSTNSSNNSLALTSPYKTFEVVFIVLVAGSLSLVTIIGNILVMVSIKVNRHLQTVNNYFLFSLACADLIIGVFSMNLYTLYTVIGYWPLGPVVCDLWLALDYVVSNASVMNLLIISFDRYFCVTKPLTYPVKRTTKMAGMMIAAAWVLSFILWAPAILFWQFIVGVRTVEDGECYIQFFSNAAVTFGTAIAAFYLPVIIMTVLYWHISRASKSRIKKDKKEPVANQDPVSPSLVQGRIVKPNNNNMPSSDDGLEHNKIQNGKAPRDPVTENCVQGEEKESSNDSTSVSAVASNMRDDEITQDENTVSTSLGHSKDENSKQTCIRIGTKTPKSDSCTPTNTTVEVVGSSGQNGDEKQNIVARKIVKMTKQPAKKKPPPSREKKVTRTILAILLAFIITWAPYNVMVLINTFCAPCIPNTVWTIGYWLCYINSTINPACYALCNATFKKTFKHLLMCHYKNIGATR
Sequence of Muscarinic acetylcholine receptor M2 (Homo sapiens, UniProt P08172) (P08172 whole entry): as above
Sequence of Muscarinic acetylcholine receptor M1 (Rattus norvegicus) (P08482 whole entry): as the sequence (P11229 whole entry) above, with A5V, T254S, P309S, R320K, A337G, I413V counted along it
Sequence of Muscarinic acetylcholine receptor M1 (Rattus norvegicus, UniProt P08482) (P08482 whole entry): as the sequence (P11229 whole entry) above, with A5V, T254S, P309S, R320K, A337G, I413V counted along it
Sequence of Muscarinic acetylcholine receptor M3 (Rattus norvegicus, UniProt P08483) (P08483 whole entry): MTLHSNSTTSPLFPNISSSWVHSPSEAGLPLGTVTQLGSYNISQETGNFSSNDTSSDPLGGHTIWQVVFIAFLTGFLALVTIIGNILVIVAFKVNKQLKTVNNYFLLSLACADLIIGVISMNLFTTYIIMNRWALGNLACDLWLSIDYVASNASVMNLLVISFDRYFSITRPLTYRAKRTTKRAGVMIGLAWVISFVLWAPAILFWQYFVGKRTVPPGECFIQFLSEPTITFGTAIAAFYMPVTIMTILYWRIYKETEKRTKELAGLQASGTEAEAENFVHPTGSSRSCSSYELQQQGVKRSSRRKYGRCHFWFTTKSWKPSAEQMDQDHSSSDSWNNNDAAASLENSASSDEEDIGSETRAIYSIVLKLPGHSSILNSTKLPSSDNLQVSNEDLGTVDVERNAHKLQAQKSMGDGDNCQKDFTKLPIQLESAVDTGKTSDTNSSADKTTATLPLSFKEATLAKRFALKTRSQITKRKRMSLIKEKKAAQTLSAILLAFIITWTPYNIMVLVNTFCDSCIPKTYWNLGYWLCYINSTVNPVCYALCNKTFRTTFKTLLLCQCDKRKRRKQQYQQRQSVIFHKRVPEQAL
Sequence of Muscarinic acetylcholine receptor M5 (Homo sapiens, UniProt P08912) (P08912 whole entry): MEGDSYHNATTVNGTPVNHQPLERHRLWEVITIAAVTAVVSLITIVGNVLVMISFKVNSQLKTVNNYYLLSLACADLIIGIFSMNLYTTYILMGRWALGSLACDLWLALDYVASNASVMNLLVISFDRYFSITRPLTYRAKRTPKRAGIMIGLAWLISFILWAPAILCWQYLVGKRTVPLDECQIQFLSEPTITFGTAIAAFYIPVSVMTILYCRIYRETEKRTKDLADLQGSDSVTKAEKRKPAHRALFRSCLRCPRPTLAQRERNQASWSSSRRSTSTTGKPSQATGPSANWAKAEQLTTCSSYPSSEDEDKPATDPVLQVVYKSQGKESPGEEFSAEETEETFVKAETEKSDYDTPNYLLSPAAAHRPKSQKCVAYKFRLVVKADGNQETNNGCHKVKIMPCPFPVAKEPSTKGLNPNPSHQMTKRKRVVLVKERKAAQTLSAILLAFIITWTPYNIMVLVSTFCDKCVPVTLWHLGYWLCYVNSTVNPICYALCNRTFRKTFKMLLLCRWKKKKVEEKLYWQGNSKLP
Sequence of Muscarinic acetylcholine receptor M2 (Rattus norvegicus, UniProt P10980) (P10980 whole entry): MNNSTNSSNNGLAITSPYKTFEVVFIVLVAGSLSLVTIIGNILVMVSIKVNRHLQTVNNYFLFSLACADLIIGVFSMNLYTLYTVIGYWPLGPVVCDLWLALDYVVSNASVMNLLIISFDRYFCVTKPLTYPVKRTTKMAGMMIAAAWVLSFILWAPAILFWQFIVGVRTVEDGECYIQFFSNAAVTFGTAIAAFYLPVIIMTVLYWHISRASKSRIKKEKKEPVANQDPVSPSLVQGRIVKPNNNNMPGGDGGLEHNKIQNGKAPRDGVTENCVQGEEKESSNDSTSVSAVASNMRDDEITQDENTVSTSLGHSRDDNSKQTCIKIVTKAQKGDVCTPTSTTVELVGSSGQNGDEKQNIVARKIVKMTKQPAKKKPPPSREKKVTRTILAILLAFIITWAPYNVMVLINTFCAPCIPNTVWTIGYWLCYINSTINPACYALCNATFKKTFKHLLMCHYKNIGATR
Sequence of Muscarinic acetylcholine receptor M2 (Rattus norvegicus) (P10980 whole entry): as above
Sequence of Muscarinic acetylcholine receptor M5 (Rattus norvegicus, UniProt P08911) (P08911 whole entry): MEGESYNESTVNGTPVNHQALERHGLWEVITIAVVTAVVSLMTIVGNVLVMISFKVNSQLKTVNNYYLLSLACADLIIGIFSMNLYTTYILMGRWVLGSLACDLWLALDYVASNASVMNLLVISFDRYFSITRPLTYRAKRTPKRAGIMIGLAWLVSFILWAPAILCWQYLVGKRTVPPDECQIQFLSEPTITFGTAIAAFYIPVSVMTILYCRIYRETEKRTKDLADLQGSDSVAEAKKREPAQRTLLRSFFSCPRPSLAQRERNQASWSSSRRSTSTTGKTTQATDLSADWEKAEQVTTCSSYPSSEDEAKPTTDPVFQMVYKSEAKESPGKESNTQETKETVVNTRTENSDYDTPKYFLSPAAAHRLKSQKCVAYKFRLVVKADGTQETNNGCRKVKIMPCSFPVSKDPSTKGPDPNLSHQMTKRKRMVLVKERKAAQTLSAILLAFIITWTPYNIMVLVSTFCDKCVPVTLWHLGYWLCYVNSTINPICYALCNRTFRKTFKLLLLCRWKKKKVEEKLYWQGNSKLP
Sequence of Muscarinic acetylcholine receptor M3 (Homo sapiens, UniProt P20309) (P20309 whole entry): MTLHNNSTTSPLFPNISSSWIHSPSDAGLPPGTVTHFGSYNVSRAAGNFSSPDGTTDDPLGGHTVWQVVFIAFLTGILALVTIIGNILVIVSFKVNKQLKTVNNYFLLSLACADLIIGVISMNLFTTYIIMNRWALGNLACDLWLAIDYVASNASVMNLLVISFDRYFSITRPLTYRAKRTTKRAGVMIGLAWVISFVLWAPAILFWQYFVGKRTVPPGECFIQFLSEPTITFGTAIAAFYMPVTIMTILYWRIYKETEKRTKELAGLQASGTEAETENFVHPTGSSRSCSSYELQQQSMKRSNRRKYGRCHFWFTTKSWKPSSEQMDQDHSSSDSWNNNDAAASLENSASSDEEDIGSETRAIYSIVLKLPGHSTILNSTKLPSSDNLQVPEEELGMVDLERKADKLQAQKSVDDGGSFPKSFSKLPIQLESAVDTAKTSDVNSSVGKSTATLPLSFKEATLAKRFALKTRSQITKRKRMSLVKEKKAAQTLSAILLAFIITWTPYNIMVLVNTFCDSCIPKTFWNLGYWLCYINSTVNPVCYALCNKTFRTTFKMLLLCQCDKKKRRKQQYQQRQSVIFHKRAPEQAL

Row | %max [1] | EC50 ([2]; read-out: EC50) | Compound | other results
1 | 33.2% | 180 nM | Cc1nc2sc(C(=O)NCc3ccc(Cl)cc3)c(N)c2c(C)c1Cl | –
2 | 41.4% | 226 nM | Cc1nc2sc(C(=O)NC3CCCCC3)c(N)c2c(C)c1Cl | –
3 | – | – | Cc1nc2sc(C(=O)NCCc3cccnc3)c(N)c2c(C)c1Cl | EC50 ([2]; read-out: pEC50 (converted)): > 30200 nM
4 | 78.5% | 271 nM | Cc1nc2sc(C(=O)NCc3ccncn3)c(N)c2c(C)c1Cl | –
5 | 74.1% | 356 nM | Cc1nc2sc(C(=O)NCc3ccccn3)c(N)c2c(C)c1Cl | –
6 | 74.5% | 128 nM | Cc1nc2sc(C(=O)NCCc3ccncc3)c(N)c2c(C)c1Cl | –
7 | 46.8% | 104 nM | Cc1ccc(CNC(=O)c2sc3nc(C)c(Cl)c(C)c3c2N)cc1 | –
8 | 83.6% | 107 nM | COc1ccc(CNC(=O)c2sc3nc(C)c(Cl)c(C)c3c2N)cc1 | –
9 | 78.6% | 289 nM | Cc1nc2sc(C(=O)NC3CCOCC3)c(N)c2c(C)c1Cl | –
10 | – | > 30000 nM | CCOc1ccc(NC(=O)c2sc3nc(C)c(Cl)c(C)c3c2N)cc1 | –
11 | 85.7% | 418 nM | COCCCNC(=O)c1sc2nc(C)c(Cl)c(C)c2c1N | –
12 | 83.1% | 294 nM | Cc1nc2sc(C(=O)NCc3cnccn3)c(N)c2c(C)c1Cl | –
13 | 79.5% | 124 nM | Cc1nc2sc(C(=O)NCc3cccc(F)c3F)c(N)c2c(C)c1Cl | –
14 | 81% | 108 nM | Cc1nc2sc(C(=O)NCc3ccccc3)c(N)c2c(C)c1Cl | –
15 | 71.7% | 80 nM | Cc1nc2sc(C(=O)NCc3ccc4c(c3)OCO4)c(N)c2c(C)c1Cl | –
16 | 38% | 926 nM | Cc1nc2sc(C(=O)NCCC3CCCN3C)c(N)c2c(C)c1Cl (stereo not drawn) | –
17 | 65.1% | 249 nM | Cc1nc2sc(C(=O)NCc3nccs3)c(N)c2c(C)c1Cl | –

Row | Compound | %max [1] | EC50 ([2]; read-out: EC50) | other results
18 | Cc1cc(OCc2ccncc2)nc2sc(C(=O)NCc3cccc(F)c3F)c(N)c12 | – | 500 nM | EC50 [3]: 900 nM
19 | Cc1nc2sc(C(=O)NC3CC3)c(N)c2c(C)c1Cl | 94% | 77 nM | EC50 [4]: > 30000 nM; EC50 [5]: > 30000 nM; EC50 [6]: > 30000 nM; EC50 [7]: > 30000 nM; %max [8]: 58%; EC50 [9]: 640 nM; %max [10]: 64%; EC50 [11]: 550 nM; %max [12]: 26%; EC50 [13]: 940 nM; %max [14]: 33%; Fu (Plasma [15]): 1.1%; EC50 [16]: 970 nM; Fu (Plasma [17]): 6.4%; fold change (FC) [18]: 54.1; fold change (FC) [19]: 224; EC50 [3]: 147 nM
